Experimental data from US20140171429A1, “BICYCLIC INHIBITORS OF ALK” (ABBVIE INC., priority 2011, published 2014).

The compounds below were run against T1, ALK (Homo sapiens, UniProt Q9UM73) (assay: ALK kinase assay (HTRF_ALK)). Conditions: apparent Ki converted from IC50 by the Cheng-Prusoff relationship; ALK (Millipore), 50 μM ATP, 1 h at room temperature.
T1 construct: purchased Millipore
Assay type: biochemical

T1 sequence (Q9UM73 19-1620): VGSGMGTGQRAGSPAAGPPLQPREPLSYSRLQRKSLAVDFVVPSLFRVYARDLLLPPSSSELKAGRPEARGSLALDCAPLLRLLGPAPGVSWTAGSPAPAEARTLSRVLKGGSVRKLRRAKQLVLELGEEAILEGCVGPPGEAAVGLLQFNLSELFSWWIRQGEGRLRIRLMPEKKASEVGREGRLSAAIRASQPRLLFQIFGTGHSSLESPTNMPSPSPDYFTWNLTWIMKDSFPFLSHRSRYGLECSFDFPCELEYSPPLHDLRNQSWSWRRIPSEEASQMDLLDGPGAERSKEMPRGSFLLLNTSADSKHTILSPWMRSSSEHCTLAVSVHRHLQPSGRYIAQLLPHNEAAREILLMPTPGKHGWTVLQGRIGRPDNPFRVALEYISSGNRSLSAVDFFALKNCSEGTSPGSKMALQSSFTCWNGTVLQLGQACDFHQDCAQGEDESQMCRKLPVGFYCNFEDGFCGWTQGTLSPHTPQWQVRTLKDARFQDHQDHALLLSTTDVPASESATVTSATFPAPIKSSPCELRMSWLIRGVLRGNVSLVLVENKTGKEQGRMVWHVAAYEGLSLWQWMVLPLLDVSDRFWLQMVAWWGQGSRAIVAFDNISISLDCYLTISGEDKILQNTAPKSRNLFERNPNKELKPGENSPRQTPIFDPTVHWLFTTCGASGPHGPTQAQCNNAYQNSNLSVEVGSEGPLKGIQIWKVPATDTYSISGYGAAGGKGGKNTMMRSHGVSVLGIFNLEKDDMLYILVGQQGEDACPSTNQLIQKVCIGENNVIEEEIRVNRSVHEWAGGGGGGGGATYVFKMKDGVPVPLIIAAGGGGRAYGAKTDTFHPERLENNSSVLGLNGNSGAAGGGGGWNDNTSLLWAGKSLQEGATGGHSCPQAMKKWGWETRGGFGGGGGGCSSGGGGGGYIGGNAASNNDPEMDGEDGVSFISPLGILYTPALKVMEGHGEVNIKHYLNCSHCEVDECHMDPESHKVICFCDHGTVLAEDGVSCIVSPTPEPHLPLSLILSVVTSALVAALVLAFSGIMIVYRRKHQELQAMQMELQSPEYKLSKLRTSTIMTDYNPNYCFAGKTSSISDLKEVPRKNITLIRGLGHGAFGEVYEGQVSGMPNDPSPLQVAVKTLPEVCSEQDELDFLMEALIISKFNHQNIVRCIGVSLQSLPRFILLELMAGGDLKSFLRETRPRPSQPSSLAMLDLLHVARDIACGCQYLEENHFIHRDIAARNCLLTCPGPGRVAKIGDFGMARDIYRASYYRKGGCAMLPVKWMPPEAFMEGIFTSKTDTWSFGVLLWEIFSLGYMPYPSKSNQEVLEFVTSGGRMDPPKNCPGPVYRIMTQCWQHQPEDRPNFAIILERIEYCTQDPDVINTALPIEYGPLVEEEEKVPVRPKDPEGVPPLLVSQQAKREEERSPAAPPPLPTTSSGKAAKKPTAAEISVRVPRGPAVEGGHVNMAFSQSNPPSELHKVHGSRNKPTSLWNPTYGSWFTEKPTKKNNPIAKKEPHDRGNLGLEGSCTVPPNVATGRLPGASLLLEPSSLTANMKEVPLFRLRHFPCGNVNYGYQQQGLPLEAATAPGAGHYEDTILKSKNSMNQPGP

`COc1cc(N2CCN(C)CC2)ccc1Nc1cc(Cc2c(Cl)cccc2Cl)nc2cc[nH]c(=O)c12` [Example 1, 2-(2,6-dichlorobenzyl)-4-{[2-methoxy-4-(4-methylpiperazin-1-yl)phenyl]amino}-1,6-naphthyridin-5 (6H)-one] was tested. Which Ki did it give?
Its Ki is 8 nM.

With `COc1cc(N2CCNCC2)ccc1Nc1cc(Cc2c(Cl)cccc2Cl)nc2cc[nH]c(=O)c12` [Example 2, 2-(2,6-dichlorobenzyl)-4-{[2-methoxy-4-(piperazin-1-yl)phenyl]amino}-1,6-naphthyridin-5(6H)-one] as the compound, how does the Ki read?
The Ki was 4 nM.

How did the Ki turn out when `O=c1[nH]ccc2nc(Cc3c(Cl)cccc3Cl)cc(Nc3ccc(N4CCNCC4)cc3)c12` [Example 3, 2-(2,6-dichlorobenzyl)-4-{[4-(piperazin-1-yl)phenyl]amino}-1,6-naphthyridin-5(6H)-one] was run?
The Ki was 72 nM.

For `COc1cc(N2CCN(C)CC2)ccc1Nc1nc(Cc2c(Cl)cccc2Cl)cc2cc[nH]c(=O)c12` [Example 4, 6-(2,6-dichlorobenzyl)-8-{[2-methoxy-4-(4-methylpiperazin-1-yl)phenyl]amino}-2,7-naphthyridin-1(2H)-one], which Ki is on record?
Its Ki is 64 nM.

Which Ki does the source give for `COc1cc(N2CCN(C)CC2)ccc1Nc1nc(Cc2c(Cl)cccc2Cl)cc2nc[nH]c(=O)c12` [Example 5, 7-(2,6-dichlorobenzyl)-5-{[2-methoxy-4-(4-methylpiperazin-1-yl)phenyl]amino}pyrido[4,3-d]pyrimidin-4(3H)-one] here?
Its Ki is 7 nM.

`COc1cc(N2CCNCC2)ccc1Nc1nc(Cc2c(Cl)cccc2Cl)cc2nc[nH]c(=O)c12` [Example 6, 7-(2,6-dichlorobenzyl)-5-{[2-methoxy-4-(piperazin-1-yl)phenyl]amino}pyrido[4,3-d]pyrimidin-4(3H)-one] was tested. Which Ki did it give?
Its Ki is 6 nM.

With `O=c1[nH]cnc2cc(Cc3c(Cl)cccc3Cl)nc(Nc3ccc(N4CCNCC4)cc3)c12` [Example 7, 7-(2,6-dichlorobenzyl)-5-{[4-(piperazin-1-yl)phenyl]amino}pyrido[4,3-d]pyrimidin-4(3H)-one] as the compound, how does the Ki read?
Its Ki is 10 nM.

Which Ki does the source give for `COc1cc(N2CCNCC2)ccc1Nc1nc(Cc2c(Cl)cccc2Cl)cc2cc[nH]c(=O)c12` [Example 8, 6-(2,6-dichlorobenzyl)-8-{[2-methoxy-4-(piperazin-1-yl)phenyl]amino}-2,7-naphthyridin-1(2H)-one] here?
The Ki was 3 nM.

`O=c1[nH]ccc2cc(Cc3c(Cl)cccc3Cl)nc(Nc3ccc(N4CCNCC4)cc3)c12` [Example 9, 6-(2,6-dichlorobenzyl)-8-{[4-(piperazin-1-yl)phenyl]amino}-2,7-naphthyridin-1(2H)-one] was tested. Which Ki did it give?
Its Ki is 14 nM.

Which Ki does the source give for `COc1cc(N2CCC(N(C)C)CC2)ccc1Nc1nc(Cc2c(Cl)cccc2Cl)cc2cc[nH]c(=O)c12` [Example 10, 6-(2,6-dichlorobenzyl)-8-({4-[4-(dimethylamino)piperidin-1-yl]-2-methoxyphenyl}amino)-2,7-naphthyridin-1(2H)-one] here?
The Ki was 180 nM.

How did the Ki turn out when `COc1cc(N2CCNCC2)ccc1Nc1cc(Cc2c(Cl)cccc2Cl)nc2nc[nH]c(=O)c12` [Example 11, 7-(2,6-dichlorobenzyl)-5-{[2-methoxy-4-(piperazin-1-yl)phenyl]amino}pyrido[2,3-d]pyrimidin-4(3H)-one] was run?
Its Ki is 70 nM.

For `COc1cc(N2CCNCC2)ccc1Nc1nc(Cc2c(Cl)cccc2Cl)nc2nc[nH]c(=O)c12` [Example 12, 7-(2,6-dichlorobenzyl)-5-{[2-methoxy-4-(piperazin-1-yl)phenyl]amino}pyrimido[4,5-d]pyrimidin-4(3H)-one], which Ki is on record?
Its Ki is 13 nM.

With `O=c1[nH]ccc2nc(Cc3c(Cl)cccc3Cl)cc(Nc3ccc(N4CCNCC4)c(F)c3)c12` [Example 13, 2-(2,6-dichlorobenzyl)-4-(3-fluoro-4-(piperazin-1-yl)phenylamino)-1,6-naphthyridin-5(6H)-one] as the compound, how does the Ki read?
Its Ki is 3 nM.

Which Ki does the source give for `COc1cc(N2CCNCC2)ccc1Nc1nc(Cc2c(Cl)cccc2Cl)nc2cc[nH]c(=O)c12` [Example 14, 2-(2,6-dichlorobenzyl)-4-{[2-methoxy-4-(piperazin-1-yl)phenyl]amino}pyrido[4,3-d]pyrimidin-5(6H)-one] here?
Its Ki is 84 nM.

Which Ki does the source give for `O=c1[nH]ccc2nc(Cc3c(Cl)cccc3Cl)nc(Nc3ccc(N4CCNCC4)cc3)c12` [Example 15, 2-(2,6-dichlorobenzyl)-4-{[4-(piperazin-1-yl)phenyl]amino}pyrido[4,3-d]pyrimidin-5(6H)-one] here?
The Ki was 1450 nM.

For `O=c1[nH]ccc2cc(Cc3c(F)cccc3Cl)nc(Nc3ccc(N4CCNCC4)cc3)c12` [Example 16, 6-(2-chloro-6-fluorobenzyl)-8-{[4-(piperazin-1-yl)phenyl]amino}-2,7-naphthyridin-1(2H)-one], which Ki is on record?
The Ki was 480 nM.

With `COc1cc(C(=O)N2CCN(C)CC2)ccc1Nc1nc(Cc2c(Cl)cccc2Cl)cc2cc[nH]c(=O)c12` [Example 17, 6-(2,6-dichlorobenzyl)-8-({2-methoxy-4-[(4-methylpiperazin-1-yl)carbonyl]phenyl}amino)-2,7-naphthyridin-1(2H)-one] as the compound, how does the Ki read?
The Ki was over 1000 nM.

For `COc1cc(C(=O)NCCCN2CCOCC2)ccc1Nc1cc(Cc2c(Cl)cccc2Cl)nc2cc[nH]c(=O)c12` [Example 18, 4-{[2-(2,6-dichlorobenzyl)-5-oxo-5,6-dihydro-1,6-naphthyridin-4-yl]amino}-3-methoxy-N-[3-(morpholin-4-yl)propyl]benzamide], which Ki is on record?
Its Ki is 51 nM.

`COc1cc(C(=O)NCCCN2CCOCC2)ccc1Nc1nc(Cc2c(Cl)cccc2Cl)cc2cc[nH]c(=O)c12` [Example 19, 4-{[3-(2,6-dichlorobenzyl)-8-oxo-7,8-dihydro-2,7-naphthyridin-1-yl]amino}-3-methoxy-N-[3-(morpholin-4-yl)propyl]benzamide] was tested. Which Ki did it give?
Its Ki is 25 nM.

With `COc1cc(C(=O)N2CCN(C)CC2)ccc1Nc1cc(Cc2c(Cl)cccc2Cl)nc2cc[nH]c(=O)c12` [Example 20, 2-(2,6-dichlorobenzyl)-4-({2-methoxy-4-[(4-methylpiperazin-1-yl)carbonyl]phenyl}amino)-1,6-naphthyridin-5(6H)-one] as the compound, how does the Ki read?
Its Ki is 51 nM.

For `COc1cc(C(=O)NCCN2CCCC2)ccc1Nc1cc(Cc2c(Cl)cccc2Cl)nc2cc[nH]c(=O)c12` [Example 21, 4-{[2-(2,6-dichlorobenzyl)-5-oxo-5,6-dihydro-1,6-naphthyridin-4-yl]amino}-3-methoxy-N-[2-(pyrrolidin-1-yl)ethyl]benzamide], which Ki is on record?
Its Ki is 25 nM.

`COc1cc(C(=O)NCCN2CCCC2)ccc1Nc1nc(Cc2c(Cl)cccc2Cl)cc2cc[nH]c(=O)c12` [Example 22, 4-{[3-(2,6-dichlorobenzyl)-8-oxo-7,8-dihydro-2,7-naphthyridin-1-yl]amino}-3-methoxy-N-[2-(pyrrolidin-1-yl)ethyl]benzamide] was tested. Which Ki did it give?
Its Ki is 54 nM.

How did the Ki turn out when `COc1cc(C(=O)NCCN(C)C)ccc1Nc1cc(Cc2c(Cl)cccc2Cl)nc2cc[nH]c(=O)c12` [Example 23, 4-{[2-(2,6-dichlorobenzyl)-5-oxo-5,6-dihydro-1,6-naphthyridin-4-yl]amino}-N-[2-(dimethylamino)ethyl]-3-methoxybenzamide] was run?
The Ki was 12 nM.

For `COc1cc(C(=O)NCCN2CCCCC2)ccc1Nc1cc(Cc2c(Cl)cccc2Cl)nc2cc[nH]c(=O)c12` [Example 24, 4-{[2-(2,6-dichlorobenzyl)-5-oxo-5,6-dihydro-1,6-naphthyridin-4-yl]amino}-3-methoxy-N-[2-(piperidin-1-yl)ethyl]benzamide], which Ki is on record?
The Ki was 8 nM.

Which Ki does the source give for `COc1cc(C(=O)NCCN2CCN(C)CC2)ccc1Nc1cc(Cc2c(Cl)cccc2Cl)nc2cc[nH]c(=O)c12` [Example 25, 4-{[2-(2,6-dichlorobenzyl)-5-oxo-5,6-dihydro-1,6-naphthyridin-4-yl]amino}-3-methoxy-N-[2-(4-methylpiperazin-1-yl)ethyl]benzamide] here?
Its Ki is 22 nM.

Which Ki does the source give for `COc1cc(C(=O)NCCN2CCN(C)CC2)ccc1Nc1nc(Cc2c(Cl)cccc2Cl)cc2cc[nH]c(=O)c12` [Example 26, 4-{[3-(2,6-dichlorobenzyl)-8-oxo-7,8-dihydro-2,7-naphthyridin-1-yl]amino}-3-methoxy-N-[2-(4-methylpiperazin-1-yl)ethyl]benzamide] here?
The Ki was 212 nM.

Which Ki does the source give for `COc1cc(C(=O)NCCN2CCCCC2)ccc1Nc1nc(Cc2c(Cl)cccc2Cl)cc2cc[nH]c(=O)c12` [Example 27, 4-{[3-(2,6-dichlorobenzyl)-8-oxo-7,8-dihydro-2,7-naphthyridin-1-yl]amino}-3-methoxy-N-[2-(piperidin-1-yl)ethyl]benzamide] here?
The Ki was 17 nM.

For `COc1cc(C(=O)NCCCCN(C)C)ccc1Nc1nc(Cc2c(Cl)cccc2Cl)cc2cc[nH]c(=O)c12` [Example 28, 4-{[3-(2,6-dichlorobenzyl)-8-oxo-7,8-dihydro-2,7-naphthyridin-1-yl]amino}-N-[4-(dimethylamino)butyl]-3-methoxybenzamide], which Ki is on record?
The Ki was 36 nM.

How did the Ki turn out when `COc1cc(C(=O)N2CCNCC2)ccc1Nc1cc(Cc2c(Cl)cccc2Cl)nc2cc[nH]c(=O)c12` [Example 29, 2-(2,6-dichlorobenzyl)-4-{[2-methoxy-4-(piperazin-1-ylcarbonyl)phenyl]amino}-1,6-naphthyridin-5(6H)-one] was run?
The Ki was 11 nM.

Which Ki does the source give for `COc1cc(C(=O)NCCCCN(C)C)ccc1Nc1cc(Cc2c(Cl)cccc2Cl)nc2cc[nH]c(=O)c12` [Example 30, 4-{[2-(2,6-dichlorobenzyl)-5-oxo-5,6-dihydro-1,6-naphthyridin-4-yl]amino}-N-[4-(dimethylamino)butyl]-3-methoxybenzamide] here?
The Ki was 20 nM.

How did the Ki turn out when `COc1cc(N2CCNCC2)ccc1Nc1cc(Cc2ccccc2Cl)nc2cc[nH]c(=O)c12` [Example 31, 2-(2-chlorobenzyl)-4-{[2-methoxy-4-(piperazin-1-yl)phenyl]amino}-1,6-naphthyridin-5(6H)-one] was run?
The Ki was 7 nM.
